{"source": "patent US20110195924A1", "about": "“Methods of Inhibiting the Interaction Between S100P and the Receptor for Advanced Glycation End-Products” (priority 2008, published 2011)", "key": {"[1]": {"test_system": "NFκB promoter activity", "test": "NFκB luciferase reporter assay in BxPC-3 cells", "type": "cell-based", "settings": "5 hours; for basal NFκB activity, mean: 0 μM mean 1.4×10^6"}, "[2]": {"test_system": "Panc-1 cells", "test": "Panc-1 matrigel invasion assay", "type": "cell-based", "method": "FIGS. 2A-2D show the effect of cromolyn on pancreatic cancer cell invasion. Panc-1 and BxPC-3 cells were plated in Bio-coat matrigel and control chambers and cultured in serum-free culture media. After 24 hours non-invaded cells in the upper chamber were removed, and cells that invaded onto the lower surface of the membrane were counted from five adjacent fields. […] Data are expressed as the percent invasion through the matrigel matrix and membrane relative to migration through the control membrane. Means and 95% confidence intervals from three independent experiments performed in triplicate are shown. Two-tailed two-sample (unpaired) Student's t-tests were used to determine P values.\nPanc-1 and BxPC-3 cells were seeded in BIOCOAT matrigel invasion chambers and in control chambers without matrigel (Becton-Dickinson, Bedford, Mass.) according to the manufacturer's protocol. Panc-1 cells were seeded with S100P (100 nM) with or without cromolyn (100 μM), and BxPC-3 cells were seeded with or without cromolyn (1-100 μM). Briefly, 2.0×10^5 cells in 300 μL top solution (serum-free media) were added to each chamber and allowed to invade matrigel for 24 hours at 37° C. in a 5% CO2 atmosphere. The non-invading cells on the upper surface of membrane were removed from the chambers with a cotton swab, and the invading cells on the lower surface of the membrane were fixed and stained using a Diff-Quick stain kit (Becton Dickinson, Bedford, Mass.). After two washes with water, the chambers were allowed to air dry. The numbers of invading cells in five adjacent microscope fields per membrane were counted at 20× magnification to obtain the average number of cells per field. Data are expressed as the percent invasion through the matrigel matrix and membrane relative to the migration through the control membrane. The assays were performed three times."}, "[3]": {"test_system": "SW480 cells", "test": "SW480 colon cancer cell invasion (matrigel, transwell)", "type": "cell-based", "settings": "cromolyn 10 μM and 100 μM, 24 hours", "method": "SW480 cells were plated on top of a layer of matrigel in a Boyden type chamber (transwell). Media containing 5% FBS was placed in the lower well and the cells were allowed to invade the matrigel layer for 24 hours in the presence of different concentrations of cromolyn."}, "[4]": {"target": "T1, S100P and RAGE (Homo sapiens, UniProt P25815)", "T1 construct": "endogenous in cells; host or cells: BxPC-3 cell lysate", "T1 sequence (P25815 1-95)": "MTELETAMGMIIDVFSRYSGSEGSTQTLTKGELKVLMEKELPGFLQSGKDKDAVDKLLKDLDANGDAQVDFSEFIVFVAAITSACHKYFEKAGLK", "test": "Co-immunoprecipitation of S100P and RAGE from BxPC-3 cell lysates", "type": "binding", "settings": "cromolyn 100 μM", "method": "Receptor for advanced glycation end products (RAGE) was identified in the immunoprecipitates by immunoblotting with a goat polyclonal anti-RAGE antibody and anti-S100P as an internal control. In the lower panel, one representative blot and densitometric analysis (means and 95% confidence intervals [CIs]) of three independent experiments is shown. *P<0.001, versus IP α-S100P without cromolyn.\nFor co-immunoprecipitation experiments, BxPC-3 cell lysates were incubated in the absence or presence of cromolyn (100 μM) at 4° C. overnight. S100P was immunoprecipitated using a mouse monoclonal anti-S100P antibody (Transduction Laboratories, San Diego, Calif.) for 6 hours at 4° C. and IgG-immobilized beads (Pierce Biotechnology, Inc. Rockford, Ill.). Antibody-associated proteins were electrophoresed on 10% polyacrylamide gels and electrophoretically transferred to nitrocellulose membranes. Membranes were blocked in PBS/5% milk overnight at 4° C. RAGE was detected using a goat polyclonal anti-RAGE antibody (1:200, Santa Cruz, Santa Cruz, Calif.), and S100P was detected using a goat polyclonal anti-S100P antibody (1:50, R & D systems, Minneapolis, Minn.) by immunoblotting as described in Arumugam, et al., S100P stimulates cell proliferation and survival via receptor for activated glycation end products (RAGE); J. Biol. Chem. 2004 Feb. 13; 279(7):5059-65. Briefly, membranes were incubated in primary antibody for 1 hour at room temperature followed by incubation with horseradish peroxidase-labeled secondary antibody for 30 minutes at room temperature. After a thorough wash in TBS-T buffer (1M Tris-HCL pH 8.3, 3M NaCl, 0.1% Tween-20), antibody-protein complexes were detected by using a chemiluminescent substrate (GE Healthcare Bio-Sciences Corp., Piscataway, N.J.). The intensity of the band was estimated (as density units) using densitometry (GS-250 Molecular Imaging System, Bio-Rad Laboratories, Richmond, Calif.). The experiment was repeated three times. […]"}, "[5]": {"test_system": "BxPC-3 cells", "test": "BxPC-3 cell proliferation (MTS)", "type": "cell-based", "settings": "48 hours; for basal cell proliferation, mean: 0 μM mean 1.2", "method": "BxPC-3 cells were plated at 1.0×10^3 cells/well and treated with 0 μM, 1 μM, 10 μM, and 100 μM of cromolyn, and cell proliferation was analyzed after 48 hours. Means and 95% confidence intervals of three independent experiments performed in triplicate are shown. *, P=0.002; t, P<0.001 versus control. Growth of Panc-1 and BxPC3 pancreatic adenocarcinoma cells was analyzed using MTS reagent (Promega, Madison, Wis.) according to the manufacturer's directions. Purified S100P (100 nM final concentration) with or without cromolyn (100 μM final concentration) was added to Panc-1 cells. Only cromolyn (0-100 μM) was added to BxPC-3 cells, which express endogenous S100P. For both cell models, 1.0×10^3 cells/well were plated in 96-well culture dishes. Cells were treated with S100P, PDGF, or cromolyn, or a combination, followed immediately by treatment with either S100P or PDGF. MTS (20 μL per well) was added to cells at various times, and the mixture was incubated for 1 hour at 37° C. Samples were then read at 490 nm (as O.D. units) on a uQuant-Microplate Spectrophotometer (Bio-Tek Services Inc., Richmond, Va.). The assay was performed three times in triplicate."}, "[6]": {"test_system": "SKOV3 ovarian cells", "test": "SKOV3 ovarian cell viability with taxol", "type": "cell-based", "settings": "taxol 5 μM, cromolyn 10 μM, 48 hours", "method": "SKOV3 ovarian cells were plated and treated with taxol (5 μM) either in the presence or absence of cromolyn (10 μM) for 48 hours. Cell viability was analyzed after 48 hours. *, P<0.05."}}, "data": [{"compound": "O=C(O)c1cc(=O)c2c(OCC(O)COc3cccc4oc(C(=O)O)cc(=O)c34)cccc2o1", "note": "[cromolyn, disodium 1,3-bis[(2′-carboxylatochromon-5′-yl)oxy]-2-hydroxypropane]", "values": [{"measurement": "basal NFκB activity, difference versus 0 μM", "setting": "[1]; cromolyn 10 μM", "value": "4.7×10^5 photons/sec"}, {"measurement": "basal NFκB activity, mean", "setting": "[1]; cromolyn 10 μM", "value": "9.4×10^5 photons/sec"}, {"measurement": "basal NFκB activity, difference versus 0 μM", "setting": "[1]; cromolyn 100 μM", "value": "5.9×10^5 photons/sec"}, {"measurement": "basal NFκB activity, mean", "setting": "[1]; cromolyn 100 μM", "value": "8.2×10^5 photons/sec"}, {"measurement": "basal cell invasion", "setting": "[2]; Panc-1, no S100P", "value": "did not reduce"}, {"measurement": "cells invaded, mean", "setting": "[2]; Panc-1, S100P 100 nM + cromolyn 100 μM, 24 hours", "value": 9.4, "unit": "%"}, {"measurement": "cells invaded, difference S100P versus S100P+cromolyn", "setting": "[2]; Panc-1, S100P 100 nM, cromolyn 100 μM, 24 hours", "value": 48.6, "unit": "%"}, {"measurement": "invasiveness of SW480 cells", "setting": "[3]", "value": "reduced the invasiveness"}, {"measurement": "co-immunoprecipitation of S100P and RAGE, difference versus control", "setting": "[4]", "value": 25640, "unit": "density units"}, {"measurement": "total amount of S100P immunoprecipitated", "setting": "[4]", "value": "no effect"}, {"measurement": "co-immunoprecipitation of S100P and RAGE, mean", "setting": "[4]; control mean 34040", "value": 8410, "unit": "density units"}, {"measurement": "basal cell proliferation, difference versus 0 μM", "setting": "[5]; cromolyn 10 μM", "value": 0.5, "unit": "MTS units"}, {"measurement": "basal cell proliferation, mean", "setting": "[5]; cromolyn 10 μM", "value": 0.7, "unit": "MTS units"}, {"measurement": "basal cell proliferation, difference versus 0 μM", "setting": "[5]; cromolyn 100 μM", "value": 0.6, "unit": "MTS units"}, {"measurement": "basal cell proliferation, mean", "setting": "[5]; cromolyn 100 μM", "value": 0.6, "unit": "MTS units"}, {"measurement": "cell killing effect of taxol on ovarian cancer cells", "setting": "[6]", "value": "increased the cell killing effect of taxol"}]}]}
